Data reported in PubChem BioAssay (NCI).
Where “and” joins values, the source holds several entries; their conditions need not be identical. Equal entries are not always repeated.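 Assay format: 96-well plates, 48-hour exposure. The concentration for 50% growth inhibition is given as GI50. TGI is the concentration that stops growth completely.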

Key:
Test in all cases: NCI anticancer screen, dose series, 48 h
[1] = tested on: TK-10 renal
[2] = tested on: M14 melanoma
[3] = tested on: SF-295 CNS
[4] = tested on: IGROV1 ovarian
[5] = tested on: COLO 205 colon
[6] = tested on: M19-MEL melanoma
[7] = tested on: SK-OV-3 ovarian
[8] = tested on: EKVX NSCLC
[9] = tested on: CAKI-1 renal
[10] = tested on: NCI-H522 lung
[11] = tested on: K-562 leukemia
[12] = tested on: DMS 273 small cell lung
[13] = tested on: HT29 colon
[14] = tested on: HOP-62 NSCLC
[15] = tested on: NCI-H226 lung
[16] = tested on: ACHN renal
[17] = tested on: MALME-3M melanoma
[18] = tested on: SN12C renal
[19] = tested on: A549 NSCLC
[20] = tested on: NCI-H23 lung
[21] = tested on: 786-0 renal
[22] = tested on: HL-60(TB) leukemia
[23] = tested on: HCT-15 colon
[24] = tested on: SNB-78 CNS
[25] = tested on: SNB-75 CNS
[26] = tested on: SF-268 CNS
[27] = tested on: DLD-1 colon
[28] = tested on: HOP-18 NSCLC
[29] = tested on: SF-539 CNS
[30] = tested on: NCI-H460 lung
[31] = tested on: MOLT-4 leukemia
[32] = tested on: OVCAR-3 ovarian
[33] = tested on: UO-31 renal
[34] = tested on: HCT-116 colon
[35] = tested on: LXFL 529 NSCLC
[36] = tested on: SNB-19 CNS
[37] = tested on: DMS 114 small cell lung
[38] = tested on: OVCAR-8 ovarian
[39] = tested on: CCRF-CEM leukemia
[40] = tested on: HCC-2998 colon
[41] = tested on: RPMI-8226 leukemia
[42] = tested on: SK-MEL-2 melanoma
[43] = tested on: SK-MEL-5 melanoma
[44] = tested on: U251 CNS
[45] = tested on: UACC-257 melanoma
[46] = tested on: OVCAR-5 ovarian
[47] = tested on: SK-MEL-28 melanoma
[48] = tested on: KM12 colon
[49] = tested on: HOP-92 NSCLC
[50] = tested on: LOX IMVI melanoma
[51] = tested on: T-47D breast
[52] = tested on: A498 renal
[53] = tested on: DU-145 prostate
[54] = tested on: SR leukemia
[55] = tested on: HS 578T breast
[56] = tested on: BT-549 breast
[57] = tested on: MDA-N
[58] = tested on: MDA-MB-231 breast
[59] = tested on: UACC-62 melanoma
[60] = tested on: PC-3 prostate
[61] = tested on: RXF 393 renal
[62] = tested on: MDA-MB-435
[63] = tested on: OVCAR-4 ovarian
[64] = tested on: SW-620 colon
[65] = tested on: NCI/ADR-RES ovarian
[66] = tested on: MCF7 breast

Work on Cn1c2ccccc2c2ccc3c(c21)C(=O)C(c1ccccc1)=CC3=O yielded a TGI [1] of over 100 µM, a TGI [2] of over 100 µM and a TGI [3] of over 100 µM. The TGI [4] was 39.3 µM, the TGI [5] was over 100 µM and the TGI [6] was 59.9 µM. It also gave a TGI [7] of over 100 µM, a TGI [8] of 75.2 µM and a TGI [9] of over 100 µM. For the same compound, the TGI [10] was 40.2 µM, the TGI [11] was over 100 µM and the TGI [12] was 84 µM. For the same compound, the TGI [13] was over 100 µM, the TGI [14] was over 100 µM and the TGI [15] was 40.7 µM. It also gave a TGI [16] of over 100 µM, a TGI [17] of 84.4 µM and a TGI [18] of 52.3 µM. The TGI [19] was over 100 µM, the TGI [20] was over 100 µM and the TGI [21] was 32.8 µM. For the same compound, the TGI [22] was over 100 µM, the TGI [23] was 22.2 µM and the TGI [24] was over 100 µM. The TGI [25] was over 100 µM, the TGI [26] was over 100 µM and the TGI [27] was 64.6 µM. For the same compound, the TGI [28] was 5.51 µM, the TGI [29] was 47.2 µM and the TGI [30] was over 100 µM. The TGI [31] was over 100 µM, the TGI [32] was 79.2 µM and the TGI [33] was over 100 µM. It also gave a TGI [34] of 38.2 µM, a TGI [35] of 33.5 µM and a TGI [36] of over 100 µM. The TGI [37] was 43.2 µM, the TGI [38] was 42.6 µM and the TGI [39] was over 100 µM. The TGI [40] was 56.4 µM, the TGI [41] was 99.2 µM and the TGI [42] was 45.3 µM. The TGI [43] was 87.5 µM, the TGI [44] was over 100 µM and the TGI [45] was over 100 µM. For the same compound, the TGI [46] was over 100 µM, the TGI [47] was 51 µM and the TGI [48] was over 100 µM. The TGI [49] was 56.2 µM.

In the case of O=S(=O)(O)c1ccc2c(N=Nc3ccc(S(=O)(=O)O)c4ccccc34)c(O)c(S(=O)(=O)O)cc2c1, the TGI [1] is reported as over 100 µM, the TGI [2] is reported as over 100 µM and the TGI [3] is reported as over 100 µM. For the same compound, the TGI [4] was over 100 µM, the TGI [5] was over 100 µM and the TGI [50] was over 100 µM. It also gave a TGI [7] of over 100 µM, a TGI [8] of over 100 µM and a TGI [9] of over 100 µM. It also gave a TGI [10] of over 100 µM, a TGI [51] of over 100 µM and a TGI [11] of over 100 µM. The TGI [13] was over 100 µM, the TGI [52] was over 100 µM and the TGI [53] was over 100 µM. The TGI [14] was over 100 µM, the TGI [15] was over 100 µM and the TGI [16] was over 100 µM. The TGI [54] was over 100 µM, the TGI [55] was over 100 µM and the TGI [17] was over 100 µM. For the same compound, the TGI [18] was over 100 µM, the GI50 [19] was 28.7 µM and > 100 µM and the TGI [19] was over 100 µM. For the same compound, the TGI [56] was over 100 µM, the TGI [20] was over 100 µM and the TGI [21] was over 100 µM. It also gave a TGI [57] of over 100 µM, a TGI [22] of over 100 µM and a TGI [58] of over 100 µM. It also gave a TGI [59] of over 100 µM, a TGI [23] of over 100 µM and a TGI [60] of over 100 µM. The TGI [25] was over 100 µM, the TGI [26] was over 100 µM and the TGI [29] was over 100 µM. It also gave a TGI [30] of over 100 µM, a TGI [31] of over 100 µM and a TGI [61] of over 100 µM. The TGI [32] was over 100 µM, the TGI [33] was over 100 µM and the TGI [34] was over 100 µM. The TGI [62] was over 100 µM, the TGI [36] was over 100 µM and the TGI [63] was over 100 µM. It also gave a TGI [38] of over 100 µM, a TGI [64] of over 100 µM and a TGI [39] of over 100 µM. The TGI [40] was over 100 µM, the TGI [41] was over 100 µM and the TGI [42] was over 100 µM. It also gave a TGI [43] of over 100 µM, a TGI [65] of over 100 µM and a TGI [44] of over 100 µM. For the same compound, the TGI [45] was over 100 µM, the TGI [46] was over 100 µM and the TGI [66] was over 100 µM. It also gave a TGI [47] of over 100 µM, a TGI [48] of over 100 µM and a TGI [49] of over 100 µM.

Work on CCOC(=O)CCC(NC(=O)c1ccc(Oc2nc3c(N)cc(C(F)(F)F)cc3nc2-c2ccccc2)cc1)C(=O)OCC (stereo not drawn) yielded a TGI [1] of over 100 µM, a TGI [2] of over 100 µM and a TGI [3] of 96.8 µM. For the same compound, the TGI [4] was over 100 µM, the TGI [5] was over 100 µM and the TGI [50] was over 100 µM. The TGI [7] was over 58.6 µM, the TGI [8] was over 100 µM and the TGI [9] was 8.91 µM. For the same compound, the TGI [10] was 45.4 µM, the TGI [51] was over 100 µM and the TGI [11] was over 100 µM. It also gave a TGI [13] of over 100 µM, a TGI [52] of over 94.3 µM and a TGI [53] of over 64.8 µM. The TGI [14] was 28.5 µM, the TGI [15] was over 55.8 µM and the TGI [16] was over 69.6 µM. For the same compound, the TGI [54] was over 100 µM, the TGI [55] was over 72.8 µM and the TGI [17] was 91.9 µM. It also gave a TGI [18] of over 100 µM, a TGI [19] of over 100 µM and a TGI [56] of over 95 µM. For the same compound, the TGI [20] was over 59.3 µM, the TGI [21] was over 22 µM and the TGI [57] was over 100 µM. The TGI [22] was over 100 µM, the TGI [58] was over 96.1 µM and the TGI [59] was over 100 µM. For the same compound, the TGI [23] was over 100 µM, the TGI [60] was over 79.4 µM and the TGI [25] was 25.4 µM. The TGI [26] was over 71.2 µM, the TGI [29] was 8.48 µM and the TGI [30] was over 100 µM. It also gave a TGI [31] of over 100 µM, a TGI [61] of 47.7 µM and a TGI [32] of over 30.9 µM. It also gave a TGI [33] of over 100 µM, a TGI [34] of over 25.2 µM and a TGI [62] of over 100 µM. It also gave a TGI [36] of over 80.9 µM, a TGI [63] of over 100 µM and a TGI [38] of over 80.7 µM. For the same compound, the TGI [64] was over 100 µM, the TGI [39] was over 100 µM and the TGI [40] was over 100 µM. The TGI [41] was over 100 µM, the TGI [42] was over 30.7 µM and the TGI [43] was over 100 µM. The TGI [65] was over 100 µM, the TGI [44] was over 100 µM and the TGI [45] was over 31.6 µM. The TGI [46] was over 100 µM, the TGI [66] was over 100 µM and the TGI [47] was over 100 µM. It also gave a TGI [48] of over 100 µM and a TGI [49] of over 100 µM.
